Test system: Rattus norvegicus
Assay: Antihyperglycemic activity in Streptozotocin-induced diabetic Wistar rat assessed as decrease in blood glucose level at 31 mg/kg, po after 7 hrs
Assay type: functional
Parameters: scale not given: the % may be the effect or the level left

`CC(=O)O[C@H]1CC[C@]2(C)[C@H]3CC=C4[C@@H]5CC(C)(C)CC[C@]5(C(=O)O)CC[C@@]4(C)[C@]3(C)CC[C@H]2C1(C)C` [ACETYL OLEANOLIC ACID] gave an Activity of -26.3%.
